# According to article PMC3608651, “A Broad Profile of Co-Dominant Epitopes Shapes the Peripheral Mycobacterium tuberculosis Specific CD8+ T-Cell Immune Response in South African Patients with Active Tuberculosis” (PLoS ONE, 2013):
# Where two headings read alike, the source gives them in different places.
# Assays:
# Assay type in all cases: binding
# [1] = target: T1, HLA-C*07:01 (Homo sapiens, UniProt P10321, K90N/S123Y); settings: duplicated experiments, positive binder >40%
# [2] = target: T2, HLA-A*68:01 (Homo sapiens, UniProt P04439, A269V/D185E/E176V/E277Q/E87N/F33Y/G231S/I121M/I166T/I218V/L180W/L300P/L318F/N151K/P208A/P217A/Q86R/R169H/T345S); settings: duplicated experiments, positive binder >40%
# [3] = target: HLA-B*07:02 (Homo sapiens, UniProt P01889); settings: percent relative the binding of positive control peptide […]; duplicated experiments; positive binder >40%
# [4] = target: T3, HLA-A*02:01 (Homo sapiens, UniProt P04439, D140Y/D185E/D98H/E176V/E277Q/G131W/G231S/I119V/I121R/I166T/I218V/L300P/L318F/N151K/N90K/P208A/P217A/Q86G/Q94H/R138H/R169H/T345S); settings: plate-bound monomer 0.5 µg/ml, duplicated experiments, positive binder >40%
# [5] = target: T4, HLA-A*30:02 (Homo sapiens, UniProt P04439, D101N/D140H/D185E/E176R/F33S/G80R/H175R/K168Q/Q94H/R138E/R41S/V100E); settings: time points 0-8 h
# [6] = target: HLA-A*30:01 (Homo sapiens, UniProt P04439, D140H/D185E/E176W/F33S/G80R/H175R/K168Q/R138E/R41S); settings: duplicated experiments, positive binder >40%
# [7] = target: T1, HLA-C*07:01; assay: off-rate assay (t1/2); settings: time points 0-8 h
# [8] = target: T4, HLA-A*30:02
# [9] = target: HLA-A*24:02 (Homo sapiens, UniProt P04439, D101N/D140Y/D185E/E176V/E190D/F33S/G103R/G107R/I119L/I121M/I306V/K335N/L105A/L180Q/L300P/N151K/N90K/Q86E/Q94H/R106L/R138H/R89G/T104I/T345S/V100E/W191G/Y123F); settings: duplicated experiments, positive binder >40%
# [10] = target: T4, HLA-A*30:02; settings: duplicated experiments, positive binder >40%
# [11] = target: T5, HLA-B*58:01 (Homo sapiens, UniProt P01889, A329T/C349S/D201E/D98Y/E176V/E187L/E204Q/E69T/G107R/I218V/I90N/K202T/L105A/L119I/N104I/N87E/Q89R/Q94S/R106L/R155S/R180L/R86G/S101N/S121R/S35A/S48A/T118I/V127L/V306I/V36M/Y140S/Y91M); settings: duplicated experiments, positive binder >40%
# [12] = target: T1, HLA-C*07:01; assay: affinity assay (ED50)
# [13] = target: T5, HLA-B*58:01; settings: time points 0-8 h
# [14] = target: T5, HLA-B*58:01
# [15] = target: T2, HLA-A*68:01; settings: time points 0-8 h
# [16] = target: T2, HLA-A*68:01
# [17] = target: T3, HLA-A*02:01; settings: […]; peptide quantity for 50% binding saturation
# [18] = target: T3, HLA-A*02:01; settings: time points 0-8 h; time when 50% of peptide has dissociated
# [19] = peptide titrated 10−4 to 10−9 M
# [20] = percent relative the binding of positive control peptide […]
Substance,Bind B*07:02 [3] [%],O-rate A*30:02 (t1/2) [5] [h],O-rate C*07:01 (t1/2) [7] [h],O-rate B*58:01 (t1/2) [13] [h],"Bind C*07:01 [1, 20] [%]","Bind A*68:01 [2, 20] [%]","Bind A*02:01 [4, 20] [%]",Aff B*58:01 (ED50) [14],"Bind A*30:01 [6, 20] [%]",Aff A*30:02 (ED50) [8],"Bind A*24:02 [9, 20] [%]","Bind A*30:02 [10, 20] [%]","Bind B*58:01 [11, 20] [%]",Aff C*07:01 (ED50) [12],O-rate A*68:01 (t1/2) [15] [h],Aff A*68:01 (ED50) [16],further results
LAAAWGGSG [Rv3875_39-47],4,2.1,1.0,,,,,,,,,,,,,,"Bind C*07:01 ([1]; percent relative the binding of positive control peptide KYFDEHYEY): 120%; Bind A*68:01 ([2]; percent relative the binding of positive control peptide KTGGPIYKR): 10%; Bind A*02:01 ([4]; percent relative the binding of positive control peptide FLPSDFFPSV): 8%; Bind A*30:01 ([6]; percent relative the binding of positive control peptide KTKDIVNGL): 14%; Aff A*30:02 (ED50) [8, 19]: 7e-09 M; Bind A*24:02 ([9]; percent relative the binding of positive control peptide RYLKDQQLL): 4%; Bind A*30:02 ([10]; percent relative the binding of positive control peptide KIQNFRVYY): 114%; Bind B*58:01 ([11]; percent relative the binding of positive control peptide IAMESIVIW): 7%; Aff C*07:01 (ED50) [12, 19]: 4e-08 M"
I NT P AF E WY,2,1.9,1,0.5,41,9,0,5e-07 M,10,7E -07 M,20,132,54,6E -07 M,,,
FVRSSNLKF,114,1.9,1.4,,76,45,15,,0,8E -06 M,81,94,12,2E -08 M,0.1,8e-08 M,
NTPAFEWYY,0,1.5,0.9,,48,69,0,,6,2e-08 M,0,99,36,8e-09 M,0.2,1E -07 M,
LAAYHPQQF,74,1.1,0.4,,84,37,39,,0,3e-07 M,52,66,13,1E -07 M,,,
NNSPAVYLL,0,,0.6,,70,28,16,,0,,49,0,0,2e-07 M,,,
MAGSSAMIL,57,,0.5,0.8,94,0,54,9e-09 M,0,,26,13,55,1E -08 M,,,Aff A*02:01 (ED50) [17]: 700 nM; O-rate A*02:01 (t1/2) [18]: 0.4 h
ANNTRLWVY,9,1.9,0.7,,113,0,5,,19,2e-08 M,32,195,19,5e-09 M,,,
SSAMILAAY,4,3.6,1.6,0.8,41,101,0,2E -08 M,0,7E -09 M,36,118,90,4E -07 M,1.8,1E -07 M,
RAVKPT GSA,84,,1.4,0.3,82,10,19,5E -07 M,4,,0,18,72,2E -07 M,,,
